Drawing on patent publication US20240124410A1, “SMALL MOLECULES AND THEIR USE AS MALT1 INHIBITORS” (University of Pittsburgh - Of the Commonwealth System of …, priority 2021, published 2024), this text covers IC50 for one compound.

For the test, the target named is T1, BCL10-MALT1 interaction (Homo sapiens, UniProt Q9UDY8).
T1 construct: analyte a purified recombinant MALT1 fragment (DD+Ig1-2, Sumo-tagged Ig1-2 or GB-tagged DD)
T1 sequence (Q9UDY8 1-824): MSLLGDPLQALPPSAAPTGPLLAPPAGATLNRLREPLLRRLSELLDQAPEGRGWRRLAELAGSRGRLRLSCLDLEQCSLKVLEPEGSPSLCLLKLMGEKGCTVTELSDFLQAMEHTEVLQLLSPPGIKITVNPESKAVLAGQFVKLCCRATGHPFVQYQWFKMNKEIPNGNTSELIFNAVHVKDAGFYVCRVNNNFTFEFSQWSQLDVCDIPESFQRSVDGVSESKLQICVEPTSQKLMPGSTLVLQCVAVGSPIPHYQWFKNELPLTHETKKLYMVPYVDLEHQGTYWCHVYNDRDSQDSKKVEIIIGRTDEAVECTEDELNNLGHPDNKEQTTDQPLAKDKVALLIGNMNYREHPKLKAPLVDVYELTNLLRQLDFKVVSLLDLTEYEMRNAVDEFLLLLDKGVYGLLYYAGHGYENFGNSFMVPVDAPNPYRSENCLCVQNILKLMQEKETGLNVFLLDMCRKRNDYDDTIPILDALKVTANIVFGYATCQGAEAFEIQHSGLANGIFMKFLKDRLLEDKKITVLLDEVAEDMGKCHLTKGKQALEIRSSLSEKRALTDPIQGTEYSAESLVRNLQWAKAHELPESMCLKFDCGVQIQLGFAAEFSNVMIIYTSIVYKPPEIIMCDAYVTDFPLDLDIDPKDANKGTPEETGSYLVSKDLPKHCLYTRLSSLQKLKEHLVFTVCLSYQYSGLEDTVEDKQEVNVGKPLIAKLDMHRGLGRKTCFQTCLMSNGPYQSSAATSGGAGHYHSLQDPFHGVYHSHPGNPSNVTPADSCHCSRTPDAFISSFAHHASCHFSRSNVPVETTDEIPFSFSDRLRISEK
T1 sequence (O95999 1-233 partner): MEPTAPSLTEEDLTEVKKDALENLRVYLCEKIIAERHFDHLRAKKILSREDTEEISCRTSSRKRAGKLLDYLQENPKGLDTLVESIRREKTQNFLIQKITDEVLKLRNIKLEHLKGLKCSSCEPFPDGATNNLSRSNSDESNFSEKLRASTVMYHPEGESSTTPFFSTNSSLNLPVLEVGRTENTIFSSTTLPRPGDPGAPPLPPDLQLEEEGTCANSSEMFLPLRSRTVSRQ
Description: SPR analysis of disruption of the BCL10-MALT1 interaction, dose-response (FIG. 2E); Biacore 2000, full-length Bcl10 (GST-tagged recombinant human, Abnova H00008915-P01) immobilized on sensor chip, MALT1 protein passed over. The test is classed as binding. The source says:
FIG. 2. In silico screening identifies small molecules targeting the predicted BCL10-binding groove within MALT1 (Ig1-2). (A) We performed a structure-guided in silico screen of 3 million compounds, using the LibDock program from Discovery Studio 3.5, in order to identify candidate molecules that could potentially fit within the identified groove in the MALT1 Ig1-2 domain. Lipinski's rule of five filters (LipinskiRo5) were applied to enrich for compounds with drug-like properties. Potential compound hits were then screened for their ability to disrupt the MALT1-BCL10 interaction using SPR analysis. 9 candidate compounds were then subjected to a second, ELISA-based MALT1-BCL10 interaction assay, identifying 2 compounds that could disrupt the interaction in both SPR and ELISA assays. M1i-124 and M1i-1255 are the two compounds identified to disrupt the BCL10-MALT1 interaction. […]
The LibDock program from Discovery Studio 3.5 was used to perform a structure-guided in silico screen of 3 million compounds to identify candidate molecules that could potentially fit within the identified groove of MALT1 Igl-Ig2 domain, found to be critical for BCL10-MALT1 interaction. […] Top hits were further evaluated for their potential to disrupt the BCL10-MALT1 interaction through secondary SPR and ELISA-based assays as described below. […]
(In general: Surface plasmon resonance follows binding to a sensor surface in real time, without labels.)

The term IC50 denotes the concentration that gives 50% inhibition. With `O=S(=O)(NCc1ccc2c(c1)OCO2)c1ccc(Cc2ccc(S(=O)(=O)NCc3ccc4c(c3)OCO4)cc2)cc1` [M1i-124], the half-inhibitory concentration (IC50) amounted to 22 µM.
